Results: patent US11419902B2, “Compositions comprising bacterial strains” (4D Pharma Research Limited, priority 2018, dated 2022)

Experiments:
[1] = tested on: neuron specific enolase (NSE)/enolase 2; experiment: Enolase 2 expression in SH-SY5Y cells (qPCR); assay type: cell-based; conditions: 10% bacterial supernatants 17 h, vs YCFA+ culture control
Description: SH-SY5Y were plated in 6 well plates at a density of 0.5×10^6 cells. After 24 h, cells were treated in differentiation medium (growth medium containing 1% FBS) with 10% bacterial supernatants or YCFA+ for 17 h. Cells were collected, and total RNA was isolated according to the RNeasy mini kit protocol (Qiagen). cDNA was made using the High Capacity cDNA reverse transcription kit (Applied Biosystems). Gene expression was measured by qPCR. GAPDH was used as internal control. Fold change was calculated according to the 2^(−ΔΔct) method. Primer sets used are listed as SEQ ID NOs: 2, 3, 13 and 14.

IL-6 = IL-6 secretion by astrocytoma cell line U373 (ELISA); assay type: cell-based, Human; conditions: U373 cells, 100 μl bacteria supernatant, 24 h, vs untreated and YCFA+ controls
IL-8 [2] = experiment: IL-8 secretion in MG U373 cells (ELISA); assay type: cell-based, human; conditions: 10% bacteria supernatant 24 h, independently of the presence of LPS (1 ug/mL)
Description: MG U373 is a human glioblastoma astrocytoma derived from a malignant tumour and were purchased from Sigma-Aldrich (cat n. 08061901-1VL). MG U373 human glioblastoma astrocytoma cells were grown in MEM (Sigma Aldrich, cat n. M-2279) supplemented with 10% FBS, 1% Pen Strep, 4 mM L-Glut, 1×MEM Non-essential Amino Acid solution and 1× Sodium Piruvate.
Once grown the MG U373 cells were plated on 24-well plate at 100,000 cells/well. The cells were treated with LPS (1 ug/mL) alone or with 10% of bacteria supernatant from MRx0029 for 24 h. LPS is a known stimulator of proinflammatory cytokines such as IL-8. Afterwards the cell free supernatants were collected, centrifuged at 10,000 g for 3 min at 4° C. IL-8 was measured using Human IL-8 ELISA Kit from Peprotech (cat n. #900-K18) according to manufacturer instruction.

IL-8 [3] = experiment: IL-8 secretion by the HT29 cell line co-incubated with bacteria (ELISA); assay type: cell-based; conditions: differentiated HT29 cells, bacteria 10^7 CFU 2 hr, with THP1 conditioned media or alone
Description: HT29 cells were plated in 12 well plates at a density of 200,000 cells/well. Cells were being differentiated for 10 days (media change every 2 days). The day of the experiment cells were placed in the anaerobic hood and washed with anaerobic equilibrated HANKs solution. Then 900 ul of growth media (without FBS and antibiotics) was added to the cells. Bacteria cells were resuspended in of growth media (without FBS and antibiotics) and were then added at 10^7 CFU in total in 100 ul. Cells were co-incubated with bacteria for 2 hr in an anaerobic hood. Afterwards cells were washed in growth media without FBS but containing antibiotics. Cells were left to rest in 1 ml of THP1 condition media for 24 h. After 24 h incubation the supernatant was collected and spun down at 10,000 g for 3 min and 4° C. Samples were frozen at −80° C. until further use.
THP1 condition media: THp1 were seeded on T25 flask at density of 4×10^6/flask. Cells were treated in RPMI media (contain 2 mM L-glutamine without FBS) with 1 ug/ml LPS or LPS+5 mM ATP (ATP added 3 hours after LPS). Cells were left to rest for 24 hr. Thereafter Condition Media (CM) was collected by spinning down the cells at 250 g for 5 min and RT. Different CMs were used to treat HT29 Cells. A small aliquot was frozen at […] for ELISA. […]

451Lu melanoma cell line = experiment: Clonogenic survival of 451Lu cell line; assay type: cell-based; conditions: relative to both negative controls (cell line only, and YCFA+ +DMSO)
Description: Cells were trypsinized and 200 cells/well were seeded in 12-well plates. After 48 h cells were treated with the appropriate drugs in absence (YCFA+) or presence of 10% bacterial supernatant and were re-fed every three days. On day 21 after seeding, cells were fixed in ice-cold methanol and stained with Crystal Violet blue. […] were counted and survival fraction was calculated as number of colonies divided by the number of plated cells (plating efficiency) of treated divided by the plating efficiency of control.
The effects of the following treatments were assessed on the 451Lu melanoma cell line (V600E oncogenic mutation in BRAF): (1) MRx0029; (2) Vemurafenib (VEMU) in YFCA+ medium; (3) VEMU and MRx0029; (4) Azacytidine-C (Aza-c) in YFCA+ medium; (5) Aza-c and MRx0029; (6) VEMU, Aza-c and MRx0029.

Megasphaera massiliensis MRx0029
Enolase 2 expression [1]: statistically-significant effect of suppressing
IL-6 secretion (IL-6): upregulates IL-6 secretion
IL-8 secretion (IL-8 [2]): Increases IL-8 Secretion
IL-8 secretion (IL-8 [3]): increased IL-8 secretion
clonogenic survival (451Lu melanoma cell line): decreased clonogenic survival
